Test results published in patent publication US10858316B2, “Small molecule inhibitors of the MCL-1 oncoprotein and uses thereof” (University of Maryland, Baltimore, priority 2015, dated 2020).
Values joined by “and” are separate entries in the source; they are usually repeats but may differ in a detail not shown here. Equal entries are not always repeated. Where two headings read alike, the source gives them in different places.

Key:
Mcl-1 = Mcl-1 (Homo sapiens (Human), UniProt Q07820); test: Fluorescence polarization competition assay (FPCA), Mcl-1 / FITC-Bak BH3 peptide; format: binding; conditions: for Mcl-1 Exp ΔG: ΔG=−RTlnKi from experimental Ki
From the text: The tagged protein was initially purified from the crude cell lysate by immobilized metal affinity chromatography (IMAC) chromatography (GE Healthcare Life Sciences), and after dialysis to remove the imidazole the affinity tag was cleaved using PreScission Protease (GE Healthcare Life Sciences). A Sephacryl S-200 size exclusion column was used as a final purification step before the protein was concentrated with a 10,000 MWCO centifugal filter concentrator (Millipore).
(§1) Fluorescence polarization experiments were conducted using a BMG PHERAstar FS multimode microplate reader equipped with two PMTs for simultaneous measurements of the perpendicular and parallel fluorescence emission. The assays were performed in black polypropylene 384-well microplate (Costar) with a final volume of 20 microliter. […] Regression analysis was carried out using Origin (OriginLab, Northampton, Mass.) to fit the data to the Hill equation (1) to determine the initial binding affinity (KD) and the IC50 in the FPCA. For the fluorescence polarization competition titrations, an equation derived by Nikolovska-Coleska et al. was used to calculate the Ki from the IC50 data.
The target molecules were assayed for their abilities to disrupt the Mcl-1-Bak-BH3 PPI in a fluorescence polarization competition (FPC) assay with Mcl-1 and FITC-labeled Bak-BH3 peptide. Further details on the FPC assay can be found in the Supporting Information.

Bcl-xL = Bcl-xL (Homo sapiens (Human), UniProt Q07817); test: Fluorescence polarization competition assay, Bcl-xL; format: binding
Protocol: as §1

[1] = FPCA with FITC-Bak, Ki from IC50 by Nikolovska-Coleska equation, read-out: Mcl-1 Ki
[2] = Ki from IC50 by Nikolovska-Coleska equation, NA = no activity, read-out: Bcl-xL Ki
[3] = fluorescence polarization competition assay, read-out: Ki (μM) Mcl-1

Chain of Bcl-xL (Q07817 whole entry): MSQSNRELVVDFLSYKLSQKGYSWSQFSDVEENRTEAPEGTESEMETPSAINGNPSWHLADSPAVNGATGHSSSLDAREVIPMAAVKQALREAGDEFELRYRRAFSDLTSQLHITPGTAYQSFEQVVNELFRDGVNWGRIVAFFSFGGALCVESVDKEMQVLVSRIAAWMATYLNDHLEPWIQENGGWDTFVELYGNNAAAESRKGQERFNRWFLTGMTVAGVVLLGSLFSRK
Chain of Mcl-1 (Q07820 172-327): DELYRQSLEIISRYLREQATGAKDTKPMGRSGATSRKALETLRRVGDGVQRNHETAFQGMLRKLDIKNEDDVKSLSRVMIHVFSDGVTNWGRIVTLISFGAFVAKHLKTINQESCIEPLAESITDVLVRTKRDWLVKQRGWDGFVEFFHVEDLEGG

SMILES	Ki (Mcl-1; [1])	further results
CC(C)CN(c1ccc(C(=O)O)c(O)c1)S(=O)(=O)c1ccc(-c2ccccc2)cc1 [4jc117-4 13ac]	4.11 ± 0.245 µM	Ki (Bcl-xL; [2]): 10.8 ± 2.55 µM
CS(=O)(=O)NC(=O)c1ccc(N(Cc2ccccc2)S(=O)(=O)c2ccc(Oc3ccccc3)cc2)cc1O [LC-5-112 27]	2.94 ± 0.35 µM	Ki (Bcl-xL; [2]): 7.22 ± 1.07 µM
CC(C)CN(c1ccc(C(=O)O)c(O)c1)S(=O)(=O)c1ccccc1 [4jc117-1 13aa]	192 ± 37.5 µM	Ki (Bcl-xL; [2]): 154 ± 27.6 µM
O=C(NS(=O)(=O)c1ccccc1)c1ccc(N(Cc2ccccc2)S(=O)(=O)c2ccc(Oc3ccccc3)cc2)cc1O [LC-5-096 28]	1.9 µM and 1.95 µM	Ki (Bcl-xL; [2]): 2.34 ± 0.221 µM
Cc1cc(Oc2ccc(S(=O)(=O)N(CC(C)C)c3ccc(C(=O)O)c(O)c3)cc2)cc(C)c1Cl [Compound 4jc117-6]	–	Ki (Mcl-1; [3]): 0.02 ± 0.012 µM; Ki (Bcl-xL; fluorescence polarization competition assay, read-out: Ki (μM) Bcl-xL): 0.05 ± 0.01 µM
Cc1cc(Oc2ccc(N(Cc3ccccc3)S(=O)(=O)c3cc(C(=O)O)c(O)c4ccccc34)cc2)cc(C)c1Cl [3bl; JY-5-380]	–	Mcl-1 Exp ΔG (Mcl-1): -10.24 kcal/mol; Bcl-xL Exp ΔG (Bcl-xL; ΔG from experimental Ki): -8.82 kcal/mol
CC(C)CN(c1ccc(C(=O)O)c(O)c1)S(=O)(=O)c1ccc2ccccc2c1 [4jc117-3 13ab]	13.8 ± 1.32 µM	Ki (Bcl-xL; [2]): 43.1 ± 14.7 µM
O=C(NS(=O)(=O)c1ccc(NCC2CCOCC2)c([N+](=O)[O-])c1)c1ccc(N(Cc2ccccc2)S(=O)(=O)c2ccc(Oc3ccccc3)cc2)cc1O [LC-5-107 30]	1.23 ± 0.152 µM	Ki (Bcl-xL; [2]): 1.05 ± 0.146 µM
Cc1cc(CCCNc2ccc(C(=O)O)c(O)c2)cc(C)c1Cl [LC-5-184 36]	15.2 ± 1.89 µM	Ki (Bcl-xL; [2]): 22.7 ± 4.08 µM
CC(C)CN(c1ccc(C(=O)NO)c(O)c1)S(=O)(=O)c1ccc(Oc2ccccc2)cc1 [LC-5-061 25]	71 ± 5.8 µM	–
O=C(O)c1cc(S(=O)(=O)N2CCN(c3ccccc3)CC2)c2ccccc2c1O [Compound 3j, 1-Hydroxy-4-((4-phenylpiperazin-1-yl)sulfonyl)-2-naphthoic Acid]	4.54 ± 3.86 µM	–
O=C(O)c1cc(S(=O)(=O)Nc2ccccc2)c2ccccc2c1O [3l; SF-5-311]	–	Mcl-1 Exp ΔG (Mcl-1): -5.42 kcal/mol
CC(C)CN(c1cccc(C(=O)O)c1)S(=O)(=O)c1ccc(-c2ccccc2)cc1 [4jc177-4 18ac]	> 500 µM	–
N#Cc1ccc(NS(=O)(=O)c2cc(C(=O)O)c(O)c3ccccc23)cc1 [Compound 3ab, 4-(N-(4-Cyanophenyl)sulfamoyl)-1-hydroxy-2-naphthoic Acid]	22.2 ± 1.6 µM	–
O=C(O)c1ccc(N(Cc2ccccc2)S(=O)(=O)c2ccc(-c3ccccc3)cc2)cc1O [LC-4-112 13cb]	1.71 ± 0.144 µM	–
O=C(O)C1Cc2ccccc2N(S(=O)(=O)c2ccc3ccccc3c2)C1 (racemic) [±-8e]	59 ± 6 µM	–
O=C(O)c1cc(S(=O)(=O)Nc2ccc(Cl)cc2)c2ccccc2c1O [Compound 3v, 4-(N-(4-Chlorophenyl)sulfamoyl)-1-hydroxy-2-naphthoic Acid]	1.91 ± 0.26 µM	–
CC(C)CN(c1ccc(C(=O)O)cc1)S(=O)(=O)c1ccc(-c2ccccc2)cc1 [LC-3-030 8c]	16.7 ± 2.28 µM	Ki (Mcl-1; FPCA with FITC-Bak, Ki from IC50 by Nikolovska-Coleska equation, listed as 8c, read-out: Mcl-1 Ki): 16.7 µM
Cc1ccc(S(=O)(=O)N(CC(C)C)c2ccc(C(=O)O)c(O)c2)cc1 [4jc117-2 13af]	61.2 ± 4.49 µM	–
CC(C)CN(c1ccc(C(=O)O)c(O)c1)S(=O)(=O)c1ccc2ccccc2c1 [Compound 4jc117-3, 2-hydroxy-4-(N-isobutylnaphthalene-2-sulfonamido)benzoic acid]	–	Ki (Mcl-1; [3]): 60.3 ± 24.4 µM
O=C(O)c1cc(S(=O)(=O)Nc2ccc(Oc3ccc(Cl)cc3)cc2)c2ccccc2c1O [Compound 3bh, 4-(N-(4-(4-Chlorophenoxy)phenyl)sulfamoyl)-1-hydroxy-2-naphthoic Acid]	0.173 µM	–
O=C(O)c1cc(S(=O)(=O)Nc2ccc(C(F)(F)F)cc2)c2ccccc2c1O [3w; 5JC73-1]	–	Mcl-1 Exp ΔG (Mcl-1): -7.64 kcal/mol
O=C(O)c1cc(S(=O)(=O)Nc2ccc(Cl)cc2)c2ccccc2c1O [3v; 5JC67]	–	Mcl-1 Exp ΔG (Mcl-1): -7.80 kcal/mol
O=C(O)c1cc(S(=O)(=O)NCc2cccc(Cl)c2)c2ccccc2c1O [Compound 3e, 4-(N-(3-Chlorobenzyl)sulfamoyl)-1-hydroxy-2-naphthoic Acid]	5.03 ± 2.78 µM	–
O=C(O)c1cc(S(=O)(=O)Nc2ccc(C(F)(F)F)cc2)c2ccccc2c1O [Compound 3w, 1-Hydroxy-4-(N-(4-(trifluoromethyl)phenyl)sulfamoyl)-2-naphthoic Acid]	2.5 ± 0.65 µM	–
Cc1cc(OCCCN2CC(C(=O)O)Cc3ccccc32)cc(C)c1Cl (racemic) [±-11]	7.77 ± 1.39 µM	–
O=C(O)C1Cc2ccccc2N(S(=O)(=O)c2ccccc2)C1 (racemic) [±-8a]	193 ± 24 µM	Ki (Mcl-1; FPC assay, read-out: Mcl-1 Ki): 193 µM

SMILES	Ki (Mcl-1; [1])	further results
NS(=O)(=O)c1cc(C(=O)O)c(O)c2ccccc12 [3b; SF-5-294]	–	Mcl-1 Exp ΔG (Mcl-1): -5.46 kcal/mol
O=C(O)C1CNc2ccccc2C1 (racemic) [±-6, 1,2,3,4-tetrahydroquinoline-3-carboxylic acid]	> 500 µM	Ki (Mcl-1; FPC assay, read-out: Mcl-1 Ki): > 500 µM
O=C(O)C1Cc2ccccc2N(S(=O)(=O)c2ccc(-c3ccccc3)cc2)C1 (racemic) [SF-5-133, (±)-1-([1,1′-biphenyl]-4-ylsulfonyl)-1,2,3,4-tetrahydroquinoline-3-carboxylic acid]	–	Ki (Mcl-1; read-out: Mcl-1 Ki): 12 µM
O=C(O)c1cc(S(=O)(=O)Nc2ccc(Oc3ccccc3)cc2)c2ccccc2c1O [Compound 3bb, 1-Hydroxy-4-(N-(4-phenoxyphenyl)sulfamoyl)-2-naphthoic Acid]	1.15 ± 0.28 µM	–
O=C(O)C1Cc2ccccc2N(S(=O)(=O)c2ccc(Br)cc2)C1 (racemic) [±-8b]	117 ± 19 µM	Ki (Mcl-1; FPC assay, read-out: Mcl-1 Ki): 117 µM
CC(C)CN(c1ccc(Br)cc1)S(=O)(=O)c1cc(C(=O)O)c(O)c2ccccc12 [Compound 3ca, 4-(N-(4-Bromophenyl)-N-isobutylsulfamoyl)-1-hydroxy-2-naphthoic Acid]	0.566 µM	Mcl-1 Exp ΔG (Mcl-1): -8.52 kcal/mol
Cc1ccc(Oc2ccc(S(=O)(=O)N(CC(C)C)c3ccc(C(=O)O)c(O)c3)cc2)cc1 [LC-4-119 13ah]	2.25 ± 0.168 µM	–
CC(C)CN(c1cccc(C(=O)O)c1)S(=O)(=O)c1ccc2ccccc2c1 [4jc177-3 18ab]	61.7 ± 4.73 µM	–
O=C(O)c1cc(S(=O)(=O)Nc2ccccc2-c2ccccc2)c2ccccc2c1O [Compound 3r, 4-(N-([1,1′-Biphenyl]-2-yl)sulfamoyl)-1-hydroxy-2-naphthoic Acid]	8.5 ± 1.34 µM	–
Cc1cc(C)cc(Oc2ccc(S(=O)(=O)N(CC(C)C)c3ccc(C(=O)O)c(O)c3)cc2)c1 [LC-4-100 13ai]	2.96 ± 0.286 µM	–
CC(C)c1ccc(NS(=O)(=O)c2cc(C(=O)O)c(O)c3ccccc23)cc1 [Compound 3y, 1-Hydroxy-4-(N-(4-isopropylphenyl)sulfamoyl)-2-naphthoic Acid]	3.86 ± 1.53 µM	–
O=C(O)c1cc(S(=O)(=O)Nc2ccc(Oc3ccccc3)cc2)c2ccccc2c1O [3bb; SF-5-299]	–	Mcl-1 Exp ΔG (Mcl-1): -8.10 kcal/mol
CC(C)CN(c1ccc(-c2cc(=O)[nH]o2)cc1)S(=O)(=O)c1ccc(Oc2ccccc2)cc1 [LC-5-069Toptop 26]	> 500 µM	–
Cc1cc(Oc2ccc(S(=O)(=O)N3CC(C(=O)O)Cc4ccccc43)cc2)cc(C)c1Cl (racemic) [SF-5-141, (±)-1-((4-(4-chloro-3,5-dimethylphenoxy)phenyl)sulfonyl)-1,2,3,4-tetrahydroquinoline-3-carboxylic acid]	–	Ki (Mcl-1; read-out: Mcl-1 Ki): 0.286 µM
O=C(O)c1cc(S(=O)(=O)N2CCN(Cc3ccccc3)CC2)c2ccccc2c1O [3k; SF-5-307]	–	Mcl-1 Exp ΔG (Mcl-1): -7.45 kcal/mol
O=C(O)c1cc(S(=O)(=O)N2CCCCC2)c2ccccc2c1O [3i; SF-5-263]	–	Mcl-1 Exp ΔG (Mcl-1): -7.54 kcal/mol
CC(C)CN(c1ccc(C#N)c(O)c1)S(=O)(=O)c1ccc(Oc2ccccc2)cc1 [LC-5-050 23]	> 500 µM	–
O=C(O)c1cc(S(=O)(=O)Nc2cccc(Br)c2)c2ccccc2c1O [Compound 3n, 4-(N-(3-Bromophenyl)sulfamoyl)-1-hydroxy-2-naphthoic Acid]	5.64 ± 1.76 µM	–
CC(C)CN(c1ccc(C(=O)Oc2ccccc2)c(O)c1)S(=O)(=O)c1ccc(Oc2ccccc2)cc1 [LC-4-134 21]	> 500 µM	–
N#Cc1cccc(NS(=O)(=O)c2cc(C(=O)O)c(O)c3ccccc23)c1 [Compound 3ad, 4-(N-(3-Cyanophenyl)sulfamoyl)-1-hydroxy-2-naphthoic Acid]	26.9 ± 0.6 µM	–
O=C(O)c1cc(S(=O)(=O)Nc2cccc(-c3ccccc3)c2)c2ccccc2c1O [Compound 3s, 4-(N-([1,1′-Biphenyl]-3-yl)sulfamoyl)-1-hydroxy-2-naphthoic Acid]	1.88 ± 0.62 µM	–
O=C(O)c1cc(S(=O)(=O)NCc2ccccc2Cl)c2ccccc2c1O [Compound 3d, 4-(N-(2-Chlorobenzyl)sulfamoyl)-1-hydroxy-2-naphthoic Acid]	50.3 ± 11.8 µM	–
CC(C)CN(c1ccc(C(=O)O)c(O)c1)S(=O)(=O)c1ccc(F)cc1 [LC-5-025 13ad]	99.4 ± 9.37 µM	–
O=C(O)c1cc(S(=O)(=O)NCc2ccccc2Cl)c2ccccc2c1O [3d; 5JC73-2]	–	Mcl-1 Exp ΔG (Mcl-1): -5.86 kcal/mol
O=C(O)c1cc(S(=O)(=O)NCc2cccc(Cl)c2)c2ccccc2c1O [3e; 5JC71]	–	Mcl-1 Exp ΔG (Mcl-1): -7.22 kcal/mol
O=C(O)c1cc(S(=O)(=O)N2CCN(c3ccccc3)CC2)c2ccccc2c1O [3j; EW-2-051]	–	Mcl-1 Exp ΔG (Mcl-1): -7.29 kcal/mol
